# Measured values reported in PubChem BioAssay AID2060489 (Molecular Pharmacology Branch, DTP, NCI, 2025).
# Tested on: 922993-354-T-J3-PDC complex spheroids, viability
# Assay: Anticancer human tumor 922993-354-T-J3-PDC patient-derived endometrial carcinoma cell line growth inhibition [GQUAD]
# Details: for IC50: curve of first compound; for viability, T/C: stronger effect = lower value
# Procedure, shortened: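 Tumor cells were grown as complex spheroids with HUVEC endothelial cells and mesenchymal stem cells as stroma. G-quadruplex stabilizers were combined with targeted agents over half-log dilutions from near the clinical Cmax, or from 10 microM.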
# [1] = second compound 0.0316 µM, first compound 0.0316 µM
# [2] = second compound 0.0316 µM, first compound 0.1 µM
# [3] = second compound 0.0316 µM, first compound 0.316 µM
# [4] = second compound 0.0316 µM, first compound 1 µM
# [5] = second compound 0.0316 µM, first compound 3.16 µM
# [6] = second compound 0.0316 µM, first compound 10 µM
# [7] = second compound 0.1 µM, first compound 0.0316 µM
# [8] = second compound 0.1 µM, first compound 0.1 µM
# [9] = second compound 0.1 µM, first compound 0.316 µM
# [10] = second compound 0.1 µM, first compound 1 µM
# [11] = second compound 0.1 µM, first compound 3.16 µM
# [12] = second compound 0.1 µM, first compound 10 µM
# [13] = second compound 0.316 µM, first compound 0.0316 µM
# [14] = second compound 0.316 µM, first compound 0.1 µM
# [15] = second compound 0.316 µM, first compound 0.316 µM
# [16] = second compound 0.316 µM, first compound 1 µM
# [17] = second compound 0.316 µM, first compound 3.16 µM
# [18] = second compound 0.316 µM, first compound 10 µM
# [19] = second compound 1 µM, first compound 0.0316 µM
# [20] = second compound 1 µM, first compound 0.1 µM
# [21] = second compound 1 µM, first compound 0.316 µM
# [22] = second compound 1 µM, first compound 1 µM
# [23] = second compound 1 µM, first compound 3.16 µM
# [24] = second compound 1 µM, first compound 10 µM
# [25] = second compound 3.16 µM, first compound 0.0316 µM
# [26] = second compound 3.16 µM, first compound 0.1 µM
# [27] = second compound 3.16 µM, first compound 0.316 µM
# [28] = second compound 3.16 µM, first compound 1 µM
# [29] = second compound 3.16 µM, first compound 3.16 µM
# [30] = second compound 3.16 µM, first compound 10 µM
# [31] = second compound 10 µM, first compound 0.0316 µM
# [32] = second compound 10 µM, first compound 0.1 µM
# [33] = second compound 10 µM, first compound 0.316 µM
# [34] = second compound 10 µM, first compound 1 µM
# [35] = second compound 10 µM, first compound 3.16 µM
# [36] = second compound 10 µM, first compound 10 µM
# 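Also: spheroids exposed to compounds for seven days.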
# 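For viability, T/C in this document: 100% = DMSO vehicle control viability.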
smiles,measurement,setting,value
CC(C)(O)C1CCC(Nc2ccc3ncc(-c4cccc(C(F)(F)F)c4)n3n2)CC1 (stereo unspecified) + Cc1cnc(CNC(=O)c2c(=O)c3ccc(N4CCCN(C)CC4)nc3n3c2sc2ccccc23)cn1,IC50,second compound 0.0316 µM,> 10 µM
same,IC50,second compound 0.1 µM,> 10 µM
same,IC50,second compound 0.316 µM,0.0316 µM
same,IC50,second compound 1 µM,< 0.0316 µM
same,IC50,second compound 3.16 µM,< 0.0316 µM
same,IC50,second compound 10 µM,< 0.0316 µM
same,"viability, T/C",[1],89.5%
same,"viability, T/C",[2],97.4%
same,"viability, T/C",[3],67.9%
same,"viability, T/C",[4],90.6%
same,"viability, T/C",[5],105%
same,"viability, T/C",[6],84.1%
same,"viability, T/C",[7],69%
same,"viability, T/C",[8],71.9%
same,"viability, T/C",[9],51.2%
same,"viability, T/C",[10],59.6%
same,"viability, T/C",[11],65.8%
same,"viability, T/C",[12],67.6%
same,"viability, T/C",[13],48.6%
same,"viability, T/C",[14],58.8%
same,"viability, T/C",[15],48.4%
same,"viability, T/C",[16],47.5%
same,"viability, T/C",[17],65.9%
same,"viability, T/C",[18],58.2%
same,"viability, T/C",[19],47.8%
same,"viability, T/C",[20],51.8%
same,"viability, T/C",[21],40.4%
same,"viability, T/C",[22],53.1%
same,"viability, T/C",[23],57.4%
same,"viability, T/C",[24],54.8%
same,"viability, T/C",[25],40.7%
same,"viability, T/C",[26],43.9%
same,"viability, T/C",[27],38.8%
same,"viability, T/C",[28],47.4%
same,"viability, T/C",[29],41.4%
same,"viability, T/C",[30],37.5%
same,"viability, T/C",[31],36.7%
same,"viability, T/C",[32],47.4%
same,"viability, T/C",[33],31%
same,"viability, T/C",[34],18.5%
same,"viability, T/C",[35],9.55%
same,"viability, T/C",[36],4.71%
CCc1c2c(nc3ccc(O)cc13)-c1cc3c(c(=O)n1C2)COC(=O)[C@]3(O)CC + Cc1cnc(CNC(=O)c2c(=O)c3ccc(N4CCCN(C)CC4)nc3n3c2sc2ccccc23)cn1,IC50,second compound 0.0316 µM,0.0113 µM
same,IC50,second compound 0.1 µM,0.00527 µM
same,IC50,second compound 0.316 µM,< 0.000999 µM
same,IC50,second compound 1 µM,0.00512 µM
same,IC50,second compound 3.16 µM,< 0.000999 µM
same,IC50,second compound 10 µM,< 0.000999 µM
same,"viability, T/C","second compound 0.0316 µM, first compound 0.000999 µM",85.3%
same,"viability, T/C","second compound 0.0316 µM, first compound 0.00316 µM",74.5%
same,"viability, T/C","second compound 0.0316 µM, first compound 0.00999 µM",54.5%
same,"viability, T/C",[1],25.2%
same,"viability, T/C","second compound 0.0316 µM, first compound 0.0999 µM",24.4%
same,"viability, T/C",[3],31.6%
same,"viability, T/C","second compound 0.1 µM, first compound 0.000999 µM",66.8%
same,"viability, T/C","second compound 0.1 µM, first compound 0.00316 µM",63.4%
same,"viability, T/C","second compound 0.1 µM, first compound 0.00999 µM",33.2%
same,"viability, T/C",[7],23.4%
same,"viability, T/C","second compound 0.1 µM, first compound 0.0999 µM",29.4%
same,"viability, T/C",[9],33.4%
same,"viability, T/C","second compound 0.316 µM, first compound 0.000999 µM",53.9%
same,"viability, T/C","second compound 0.316 µM, first compound 0.00316 µM",43.3%
same,"viability, T/C","second compound 0.316 µM, first compound 0.00999 µM",32.2%
same,"viability, T/C",[13],26.3%
same,"viability, T/C","second compound 0.316 µM, first compound 0.0999 µM",45.5%
same,"viability, T/C",[15],52.1%
same,"viability, T/C","second compound 1 µM, first compound 0.000999 µM",48.7%
same,"viability, T/C","second compound 1 µM, first compound 0.00316 µM",60.6%
same,"viability, T/C","second compound 1 µM, first compound 0.00999 µM",43.5%
same,"viability, T/C",[19],37%
same,"viability, T/C","second compound 1 µM, first compound 0.0999 µM",42.1%
same,"viability, T/C",[21],38.1%
same,"viability, T/C","second compound 3.16 µM, first compound 0.000999 µM",44.7%
same,"viability, T/C","second compound 3.16 µM, first compound 0.00316 µM",44%
same,"viability, T/C","second compound 3.16 µM, first compound 0.00999 µM",46.5%
same,"viability, T/C",[25],49%
same,"viability, T/C","second compound 3.16 µM, first compound 0.0999 µM",47.4%
same,"viability, T/C",[27],38.8%
same,"viability, T/C","second compound 10 µM, first compound 0.000999 µM",37.6%
same,"viability, T/C","second compound 10 µM, first compound 0.00316 µM",49.3%
same,"viability, T/C","second compound 10 µM, first compound 0.00999 µM",45.3%
same,"viability, T/C",[31],44.1%
same,"viability, T/C","second compound 10 µM, first compound 0.0999 µM",45%
same,"viability, T/C",[33],26%
COc1cccc2c1C(=O)c1c(O)c3c(c(O)c1C2=O)CC(O)(C(=O)CO)CC3OC1CC(N)C(O)C(C)O1 (stereo unspecified) + Cc1cnc(CNC(=O)c2c(=O)c3ccc(N4CCCN(C)CC4)nc3n3c2sc2ccccc23)cn1,IC50,second compound 0.0316 µM,> 10 µM
same,IC50,second compound 0.1 µM,3.67 µM
same,IC50,second compound 0.316 µM,< 0.0316 µM
same,IC50,second compound 1 µM,< 0.0316 µM
same,IC50,second compound 3.16 µM,< 0.0316 µM
same,IC50,second compound 10 µM,< 0.0316 µM
same,"viability, T/C",[1],83.7%
same,"viability, T/C",[2],79.4%
same,"viability, T/C",[3],67.2%
same,"viability, T/C",[4],75.3%
same,"viability, T/C",[5],73.1%
same,"viability, T/C",[6],55%
same,"viability, T/C",[7],54.3%
same,"viability, T/C",[8],71.3%
same,"viability, T/C",[9],58.3%
same,"viability, T/C",[10],51.1%
same,"viability, T/C",[11],53.6%
same,"viability, T/C",[12],42%
same,"viability, T/C",[13],52.8%
same,"viability, T/C",[14],39.7%
same,"viability, T/C",[15],42.1%
same,"viability, T/C",[16],40.4%
same,"viability, T/C",[17],60.5%
same,"viability, T/C",[18],42.2%
same,"viability, T/C",[19],50.6%
same,"viability, T/C",[20],40.2%
same,"viability, T/C",[21],37.1%
same,"viability, T/C",[22],43.2%
same,"viability, T/C",[23],52.2%
same,"viability, T/C",[24],38.8%
same,"viability, T/C",[25],38.5%
same,"viability, T/C",[26],41.3%
same,"viability, T/C",[27],41.3%
same,"viability, T/C",[28],41.8%
same,"viability, T/C",[29],51%
same,"viability, T/C",[30],27.4%
same,"viability, T/C",[31],44.9%
same,"viability, T/C",[32],40.2%
same,"viability, T/C",[33],46.6%
same,"viability, T/C",[34],50.5%
same,"viability, T/C",[35],36.8%
same,"viability, T/C",[36],11.8%
